Experimental data as given in patent publication US20190328833A1, “POLYMYXIN-ALGINATE OLIGOMER CONJUGATES” (AlgiPharma AS, priority 2016, published 2019).

Legend:
[1] = test system: human kidney (HK-2) cell line; experiment: In vitro cytotoxicity: MTT assay; format: cell-based; conditions: HK-2, 72 h, concentration of the antibiotic or the antibiotic within the conjugate, mean (n=18)
Description: An MTT assay was used to assess cell viability in a human kidney (HK-2) cell line (72 h incubation). HK-2 cells were seeded into sterile 96-well microtitre plates (1×10^5 cells/mL) in 0.1 mL/well of media (K-SFM) containing L-glutamine, EGF and BPE. They were allowed to adhere for 24 h. The medium was then removed and a range of concentrations of test compounds (0.2 μm filter-sterilized) dissolved in fresh culture media were added to the cells. After a further 67 h incubation, MTT, 3-(4,5-dimethylthiazol-2-yl)-2,5-diphenyltetrazolium bromide, (20 μL of a 5 mg/mL solution in PBS) was added to each well and the cells were incubated for a further 5 h. The medium was then removed and the precipitated formazan crystals solubilized by addition of optical grade DMSO (100 μL) over 30 min. Absorbance was measured at 540 nm using a microtitre plate reader. Cell viability was expressed as a percentage of the viability of untreated control cells. The IC50 values were expressed as mean (n=18).
The IC50 values summarised below represent the concentration of the antibiotic (polymyxin B, colistin sulphate or colistin methanesulphonate (CMS)) or the antibiotic within the conjugate required to inhibit HK2 cells growth by half. OligoG is included as a control.

[2] = test system: Acinetobacter baumanii (V19); experiment: Two-compartment static dialysis bag PK/PD model, colony counts; format: cell-based; conditions: at MIC (0.25 μg/ml); after 4 h; Batch 6
Excerpt: Studies were undertaken to investigate the PK/PD profiles of the OligoG-colistin conjugates (Batch 6) as compared to non-conjugated colistin in vitro. This is particularly important in nanoscale drug delivery systems where the incorporation of conventional small molecule drugs into nano-sized structures is associated with PK/PD properties that are substantially altered from the original drug. The model system previously described in Azzopardi (supra) was employed.
The unmasking of OligoG-colistin conjugates was simulated using the Azzopardi two-compartment static dialysis bag model under infinite sink conditions (total volume, 20 ml; inner-compartment volume, 5 ml). Dialysis membrane (10,000 g/mol molecular weight cutoff [MWCO]) was pre-soaked for 15 to 30 min in distilled water (dH2O), secured with dialysis clips, and suspended from an injection port to separate the inner compartment (IC) from the outer compartment (OC) in a sterilized 25-ml beaker sealed with a sterile medical-grade polyurethane membrane (Tegaderm).
The model system was prepared under aseptic conditions in a class 2 laminar airflow cabinet and transferred to a shaking incubator set at 37° C. in ambient air and constant orbital agitation at 70 rpm for 48 h. […] Samples were collected from the OC at various time points and characterised by bacterial colony counts (CFU/ml) using Miles and Misra Method.

[3] = test system: V5 Escherichia coli; experiment: MIC, broth microdilution, V5; format: cell-based; conditions: n=3, median
Description: (§1) The strains used for susceptibility testing include both culture collection strains and clinical isolates (Table 1). To the extent indicated below, their known relevant genotypes and origin have been described by Khan et al. supra.
(§2) The MICs were determined using the broth microdilution method in accordance with standard guidelines (CLSI 2012). Test organisms were suspended in Mueller Hinton cation adjusted (MH) broth (100 μL, 1-5×10^4 CFU/mL) and incubated in 96-well microtitre plates in serial two-fold dilutions of the test compounds. The MIC was defined as the lowest concentration of test compound that produced no visible growth after 16-20 hours.

[4] = test system: V7 Escherichia coli; experiment: MIC, broth microdilution, V7; format: cell-based; conditions: for MIC V7: n=3, median
Description: as §1, §2

[5] = test system: V2 Pseudomonas aeruginosa, V3 Klebsiella pneumoniae, V19 Acinetobacter baumannii, V7 Escherichia coli; experiment: Bacterial growth curves (absorbance at 600 nm, 48 h); format: cell-based
Description: Finally, bacterial growth curves, using the mean of the previously determined MIC values for OligoG-colistin conjugates (amide and ester linked) and colistin sulfate, were used to compare their pharmacokinetic profiles in vitro. For comparison, bacterial growth in the presence of i) OligoG, ii) PRONOVA (high molecular weight alginate) and iii) OligoG plus colistin, both at concentrations corresponding to the amounts present in the corresponding conjugates, was measured. Sterile 96-well microtitre plates were set up for MIC assay as previously described (range: MIC×16 to MIC/16, 0). Plates were then wrapped in parafilm and placed in a microtitre plate reader at 37° C., 5% CO2 and absorbance at 600 nm was measured hourly for 48 h. Experiments were conducted in triplicate and results were presented as mean values (n=3).

[6] = test system: V6 Klebsiella pneumoniae IR25; experiment: MIC, broth microdilution, V6; format: cell-based; conditions: n=3, median
Description: as §1, §2

[7] = test system: Pseudomonas aeruginosa biofilms; experiment: Disruption of biofilm development (CLSM, live/dead stain); format: cell-based; conditions: 2×MIC-MIC/8; 24 h
Description: (§3) These experiments investigated whether OligoG-colistin conjugates could inhibit biofilm development more effectively than unconjugated forms of colistin. First, stock solutions of the test compounds were prepared at 1 mg/mL in MH broth and used to prepare a range of antibiotic concentrations (2×MIC-MIC/8) using double dilutions in MH broth across wells of a Greiner glass-bottomed optical 96-well plate (90 μL per well). Sterility (100 μL of MH broth) and growth (90 μL of MH broth plus 10 μL of tested bacterial pathogen) controls were also prepared. Overnight bacterial cultures were grown in TS broth (TSB) and diluted in MH broth to achieve an OD625 of 0.5, then 10 μL was added to the wells. Plates were wrapped in parafilm and incubated for 24 h on a rocker (20 rpm) at 37° C. After a 24 h incubation, the supernatant was carefully removed from all wells and 3 μL of live/dead stain (Live/dead Baclight Bacterial Viability kit; prepared by mixing 1 μL of component A and B in 1 mL of PBS) was added. The plate was wrapped in foil and kept in the dark for 15 min. Lastly, 47 μL of PBS was added to all tested wells. The plate was wrapped in parafilm and kept in the dark until it was analysed by confocal laser scanning microscopy (CLSM), n=2.

[8] = test system: V1 Pseudomonas aeruginosa R22; experiment: MIC, broth microdilution, V1; format: cell-based; conditions: n=3, median
Description: as §1, §2

[9] = test system: V19 Acinetobacter baumannii; experiment: MIC, broth microdilution, V19; format: cell-based; conditions: for MIC V19: n=3, median
Description: as §1, §2

[10] = test system: V4 Acinetobacter baumanii MDR ACB; experiment: MIC, broth microdilution, V4; format: cell-based; conditions: n=3, median
Description: as §1, §2

[11] = test system: V2 Pseudomonas aeruginosa (301); experiment: MIC, broth microdilution, V2; format: cell-based; conditions: for MIC V2: n=3, median
Description: as §1, §2

[12] = test system: V11 Escherichia coli; experiment: MIC, broth microdilution, V11; format: cell-based; conditions: Batch 6; n=3, median
Description: as §1, §2

[13] = test system: Pseudomonas aeruginosa; experiment: MIC quoted for the biofilm study; format: cell-based; conditions: FIG. 9 legend and Example 7; strain not stated
Description: as §2
as §3, with “After a 24 h incubation, the supernatant was carefully removed from all wells and 3 μL of live/dead stain (Live/dead Baclight Bacterial Viability kit; prepared by mixing 1 μL of component A and B in 1 mL of PBS) was added. The plate was wrapped in foil and kept in the dark for 15 min. Lastly, 47 μL of PBS was added to all tested wells.” left out

[14] = test system: V3 Klebsiella pneumoniae; experiment: MIC, broth microdilution, V3; format: cell-based; conditions: for MIC V3: n=3, median
Description: as §1, §2

[15] = test system: NH57388A Pseudomonas aeruginosa; experiment: MIC, broth microdilution, NH57388A; format: cell-based; conditions: Batch 6; n=3, median
Description: as §1, §2

[16] = test system: TNFα release from HK2 cells; experiment: TNFα release from HK2 cells (ELISA); format: cell-based, human; conditions: 72 h incubation, FIG. 8
Description: As a model inflammatory cytokine involved in polymyxin cyto toxicity, TNFα release from HK2 cells in response to polymyxins and OligoG-polymyxin conjugates was measured by ELISA. HK-2 cells were seeded into sterile 96-well microtitre plates (1×10^5 cells/mL) in 0.1 mL/well of media (K-SFM) containing L-glutamine, EGF and BPE. They were allowed to adhere for 24 h. The medium was then removed and a range of concentrations of test compounds (0.2 μm filter-sterilized) dissolved in fresh culture media were added to the cells. After 72 h incubation, microtiter plates were centrifuged (1500 rpm, 3 min) and the supernatant was transferred into a new 96-well microtitre plate.
TNFα ELISA Assay was carried out according the manufacturer's instructions (Thermo Scientific, ESS0001). Briefly, 100 μL of coating antibody (1:100 dilution in PBS) was added to each well of 96-well microtitre plate. […] Absorbance was measured at 450 nm minus 550 nm.
Standard curves were generated by plotting the average absorbance obtained for each standard concentration on the vertical (Y) axis versus the corresponding human TNFα concentration (pg/mL) on the horizontal (X) axis. Human TNFα amount in each sample was determined by interpolating from the absorbance value (Y-axis) to human TNFα concentration (X-axis) using the standard curve. […]

Substance | IC50 ([1]; Batch 5) [ng/mL] | MIC V5 ([3]; Batch 2) [ng/mL] | MIC V5 ([3]; Batch 4) [ng/mL] | MIC V5 ([3]; Batch 6) [ng/mL] | MIC V7 ([4]; Batch 4) [ng/mL] | MIC V7 ([4]; Batch 6) [ng/mL] | IC50 ([1]; Batch 4) [ng/mL] | MIC V6 ([6]; Batch 4) [ng/mL] | MIC V6 ([6]; Batch 6) [ng/mL] | MIC V1 ([8]; Batch 4) [ng/mL] | MIC V1 ([8]; Batch 6) [ng/mL] | MIC V19 ([9]; Batch 2) [ng/mL] | MIC V19 ([9]; Batch 4) [ng/mL] | MIC V19 ([9]; Batch 6) [ng/mL] | MIC V4 ([10]; Batch 4) [ng/mL] | MIC V4 ([10]; Batch 6) [ng/mL] | MIC V2 ([11]; Batch 2) [ng/mL] | MIC V2 ([11]; Batch 4) [ng/mL] | MIC V2 ([11]; Batch 6) [ng/mL] | MIC V11 [12] [ng/mL] | other results
colistin methanesulphonate [CMS] | 13970 | – | – | – | – | – | – | – | – | – | – | – | – | – | – | – | – | – | – | – | –
colistin sulfate | 10980 | 0.02 | <16 | <8 | 125 | 250 | 25000 | 62.5 | 63 | 250 | 500 | <62.5 | <16 | 250 | 500 | 500 | 250 | 250 | 500 | 31 | reduction of viable bacterial counts [2]: ~2 fold; median MIC ([4]; FIG. 4 legend, V7, MIC used for growth curves): 63 ng/mL; bacterial growth / regrowth in growth curves ([5]; FIGS. 1-5, 48 h): more rapid bacterial regrowth; inhibition of bacterial re-growth ([5]; at the median of previously determined MIC values across all batches): shortest inhibition of bacterial re-growth; concentration inhibiting bacterial re-growth for up to 48 h ([5]; up to 48 h): > 8 ×MIC; effect on biofilms [7]: only a small effect on P. aeruginosa biofilms; median MIC ([9]; FIG. 3 legend, V19, MIC used for growth curves): 2 ng/mL; median MIC ([11]; FIG. 1 legend, V2, MIC used for growth curves): 63 ng/mL; median MIC [13]: 63 ng/mL; MIC V3 ([14]; Batch 2): <125 ng/mL; MIC V3 ([14]; Batch 4): <63 ng/mL; MIC V3 ([14]; Batch 6): 125 ng/mL; median MIC ([14]; FIG. 2 legend, V3, MIC used for growth curves): 8 ng/mL; MIC NH57-388A [15]: 250 ng/mL; TNFα release, adjusted for cell viability [16]: greater TNFα release
polymyxin B | 12630 | <0.008 | <16 | <4 | 63 | 500 | 12000 | 125 | 125 | 250 | 250 | <62.5 | 31 | 125 | 125 | 125 | 250 | 500 | 500 | 63 | MIC V3 ([14]; Batch 2): <125 ng/mL; MIC V3 ([14]; Batch 4): 125 ng/mL; MIC V3 ([14]; Batch 6): 125 ng/mL; MIC NH57-388A [15]: 250 ng/mL; TNFα release, adjusted for cell viability [16]: greater TNFα release
